Results as given in ChEMBL document CHEMBL5131425, “Microbial transformation and inhibitory effect assessment of uvaol derivates against LPS and HMGB1 induced NO production in RAW264.7 macrophages” (Bioorg Med Chem Lett, 2022).

Experiments:
RAW264.7 [1] = test: Anti-inflammatory activity in mouse RAW264.7 cells assessed as inhibition of LPS-induced NO production; format: functional, cell-based
[2] = Cytotoxicity against mouse RAW264.7 cells assessed as cell viability at 50 uM; format: toxicity, cell-based; conditions: read-out: Activity
RAW264.7 [3] = test: Anti-inflammatory activity in mouse RAW264.7 cells assessed as inhibition of HMGB1-induced NO production; format: functional, cell-based

IC50 (RAW264.7 [1]) [µM]	IC50 (RAW264.7 [3]) [µM]	SMILES	viability at 50 µM [2] [%]
0.55	91.6	C[C@H]1[C@H](C(=O)O)[C@@H](O)C[C@]2(CO)CC[C@]3(C)C(=CC[C@@H]4[C@@]5(C)CC[C@H](O)[C@](C)(CO)[C@@H]5CC[C@]43C)[C@H]12	112
> 100	> 100	C[C@H]1[C@H](C(=O)O)[C@@H](O)C[C@]2(CO)CC[C@]3(C)C(=CC[C@@H]4[C@@]5(C)CC[C@H](O)[C@@](C)(CO)[C@@H]5CC[C@]43C)[C@H]12	124
2.22	> 100	C[C@H]1[C@H](C)[C@@H](O)C[C@]2(CO)CC[C@]3(C)C(=CC[C@@H]4[C@@]5(C)CC[C@H](O)C(C)(C)[C@@H]5C[C@H](O)[C@]43C)[C@H]12	94.2
29.9	60.4	C[C@@H]1[C@H]2C3=CC[C@@H]4[C@@]5(C)CC[C@H](O)[C@@](C)(CO)[C@@H]5CC[C@@]4(C)[C@]3(C)CC[C@@]2(CO)[C@@H](O)C[C@H]1C(=O)O	118

Continued, compound first:

SMILES	IC50 (RAW264.7 [1]) [µM]	IC50 (RAW264.7 [3]) [µM]	viability at 50 µM [2] [%]
C[C@H]1[C@H](C)CC[C@]2(CO)CC[C@]3(C)C(=CC[C@@H]4[C@@]5(C)CC[C@H](O)C(C)(C)[C@@H]5CC[C@]43C)[C@H]12 [UVAOL]	> 100	> 100	103
CC1(C)[C@@H](OC(=O)CCC(=O)O)CC[C@]2(C)[C@H]3C(=O)C=C4[C@@H]5C[C@@](C)(C(=O)O)CC[C@]5(C)CC[C@@]4(C)[C@]3(C)CC[C@@H]12 [CARBENOXOLONE]	6.64	7.62	88.5
C[C@H]1[C@H](C)[C@@H](O)C[C@@]23CC[C@@]4(C)[C@@]5(C)[C@H](C=C[C@]4(OC2)[C@H]13)[C@@]1(C)CC[C@H](O)C(C)(C)[C@@H]1C[C@@H]5O	4.8	47.2	94.2
C[C@@H]1[C@H]2C3=CC[C@@H]4[C@@]5(C)CC[C@H](O)[C@](C)(CO)[C@@H]5CC[C@@]4(C)[C@]3(C)CC[C@@]2(CO)[C@@H](O)C[C@H]1C(=O)O	> 100	100	117
